Key:
[1] = biological target: Xanthine dehydrogenase/oxidase (Bos taurus, UniProt P80457); experiment: Inhibition of bovine milk xanthine oxidase assessed as decrease of uric acid formation preincubated for 5 mins by UV-visible spectrophotometric analysis
Mus musculus [2] = experiment: Antihyperuricemic activity in Swiss mouse assessed as decrease of potassium oxonate-induced uric acid level in serum at 10 mg/kg, ip after 3 hrs by HPLC analysis (reference value: 7.80 +/- 0.34 uM); assay type: functional; settings: route intraperitoneal
Mus musculus [3] = experiment: Antihyperuricemic activity in Swiss mouse assessed as decrease of potassium oxonate-induced uric acid level in serum at 50 mg/kg, ip after 3 hrs by HPLC analysis (reference value: 7.80 +/- 0.34 uM); assay type: functional; settings: route intraperitoneal
Mus musculus [4] = experiment: Antihyperuricemic activity in Swiss mouse assessed as decrease of potassium oxonate-induced uric acid level in serum at 20 mg/kg, ip after 3 hrs by HPLC analysis (reference value: 7.80 +/- 0.34 uM); assay type: functional; settings: route intraperitoneal

Chain of Xanthine dehydrogenase/oxidase (P80457 whole entry): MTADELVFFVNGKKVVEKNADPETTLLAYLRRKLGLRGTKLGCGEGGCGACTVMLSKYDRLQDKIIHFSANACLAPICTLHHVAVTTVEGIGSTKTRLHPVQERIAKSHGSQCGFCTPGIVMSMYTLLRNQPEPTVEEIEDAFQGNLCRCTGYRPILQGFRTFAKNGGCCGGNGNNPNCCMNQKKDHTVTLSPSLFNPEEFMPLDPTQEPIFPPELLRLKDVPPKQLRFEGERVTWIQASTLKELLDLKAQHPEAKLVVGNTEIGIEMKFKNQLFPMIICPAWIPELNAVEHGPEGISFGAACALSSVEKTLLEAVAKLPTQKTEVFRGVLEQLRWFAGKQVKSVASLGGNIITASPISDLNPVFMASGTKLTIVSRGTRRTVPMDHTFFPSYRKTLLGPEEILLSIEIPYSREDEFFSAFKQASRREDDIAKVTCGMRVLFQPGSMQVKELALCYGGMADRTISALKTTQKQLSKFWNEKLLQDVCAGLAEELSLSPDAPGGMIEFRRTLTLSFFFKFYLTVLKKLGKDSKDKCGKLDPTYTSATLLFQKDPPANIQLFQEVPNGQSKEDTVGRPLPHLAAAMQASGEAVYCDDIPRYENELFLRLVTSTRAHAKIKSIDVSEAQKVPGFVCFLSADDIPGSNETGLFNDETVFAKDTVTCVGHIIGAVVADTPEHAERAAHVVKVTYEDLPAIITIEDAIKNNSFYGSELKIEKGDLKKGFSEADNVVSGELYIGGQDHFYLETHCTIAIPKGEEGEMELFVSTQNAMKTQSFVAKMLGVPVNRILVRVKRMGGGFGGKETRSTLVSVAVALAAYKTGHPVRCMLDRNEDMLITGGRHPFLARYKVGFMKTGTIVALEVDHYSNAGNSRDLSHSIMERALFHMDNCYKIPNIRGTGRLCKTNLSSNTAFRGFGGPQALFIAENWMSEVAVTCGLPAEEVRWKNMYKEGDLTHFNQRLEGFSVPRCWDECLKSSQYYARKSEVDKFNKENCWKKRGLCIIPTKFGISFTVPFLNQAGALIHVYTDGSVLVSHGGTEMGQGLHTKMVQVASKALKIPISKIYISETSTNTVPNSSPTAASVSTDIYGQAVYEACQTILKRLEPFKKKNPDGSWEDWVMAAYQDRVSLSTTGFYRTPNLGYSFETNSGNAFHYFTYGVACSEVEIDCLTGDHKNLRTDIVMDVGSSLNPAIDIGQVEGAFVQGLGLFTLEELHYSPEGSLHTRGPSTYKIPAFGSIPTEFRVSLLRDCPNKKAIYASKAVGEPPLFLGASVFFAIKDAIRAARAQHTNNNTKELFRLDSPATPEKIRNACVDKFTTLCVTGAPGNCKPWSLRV

Row | Structure (SMILES) | IC50 [1] [µM] | also measured
1 | O=C(CC(NC(=O)c1ccccc1)c1ccccc1)c1ccccc1 (centres undefined) | 58.1 | 
2 | O=C(CC(NC(=O)c1ccccc1)c1cccc([N+](=O)[O-])c1)c1ccccc1 (centres undefined) | 43.6 | 
3 | COc1ccc(C(CC(=O)c2ccccc2)NC(C)=O)cc1OC (centres undefined) | 44.3 | 
4 | COc1ccc(OC)c(C(CC(=O)c2ccccc2)NC(C)=O)c1 (centres undefined) | 44 | 
5 | COc1ccc(C(CC(=O)c2ccccc2)NC(C)=O)c(OC)c1OC (centres undefined) | 46.1 | 
6 | COc1cc(C(CC(=O)c2ccccc2)NC(C)=O)cc(OC)c1OC (centres undefined) | 48.2 | 
7 | C[N+](=O)C(CC(=O)c1ccccc1)c1c2ccccc2cc2ccccc12 (centres undefined) | 91.6 | 
8 | CC(=O)NC(CC(=O)c1ccc([N+](=O)[O-])cc1)c1ccccc1 (centres undefined) | 48 | 
9 | CC(=O)NC(CC(=O)c1ccc([N+](=O)[O-])cc1)c1ccc(Cl)cc1 (centres undefined) | 45.4 | 
10 | COc1ccc(C(CC(=O)c2ccc([N+](=O)[O-])cc2)NC(C)=O)cc1 (centres undefined) | 52.6 | 
11 | CC(=O)NC(CC(=O)c1ccc(Cl)cc1)c1ccc(C)cc1 (centres undefined) | 44.6 | 
12 | CC(=O)NC(CC(=O)c1ccc(Cl)cc1)c1ccc(Cl)cc1 (centres undefined) | 41 | 
13 | COc1ccc(OC)c(C(CC(=O)c2cccc(NC(C)=O)c2)NC(C)=O)c1 (centres undefined) | 43.2 | 
14 | CC(=O)Nc1cccc(C(=O)CC(NC(C)=O)c2cccc([N+](=O)[O-])c2)c1 (centres undefined) | 32 | 
15 | CC(=O)Nc1cccc(C(=O)CC(NC(C)=O)c2ccc(Cl)cc2)c1 (centres undefined) | 41.8 | 
16 | CC(=O)NC(CC(=O)c1ccccc1)c1cccs1 (centres undefined) | 65 | 
17 | CC(=O)NC(CC(=O)c1ccco1)c1cccc([N+](=O)[O-])c1 (centres undefined) | 15.2 | Activity (Mus musculus [2]): 7.13 µM; Activity (Mus musculus [3]): 6.98 µM; Activity (Mus musculus [4]): 7.01 µM
18 | COc1ccc(OC)c(C(CC(=O)c2cc(Cl)cs2)NC(C)=O)c1 (centres undefined) | 20 | 
19 | CC(=O)NC(CC(=O)c1cc(Cl)cs1)c1ccc(Cl)cc1 (centres undefined) | 22 | 
20 | CC(=O)NC(CC(=O)c1ccco1)c1ccccc1 (centres undefined) | 26 | 
21 | CC(=O)NC(CC(=O)c1cccs1)c1ccccc1 (centres undefined) | 27 | 
22 | CC(=O)NC(CC(=O)c1cc(C)sc1C)c1cccc([N+](=O)[O-])c1 (centres undefined) | 19.8 | 
23 | CC(=O)NC(CC(=O)c1cc(C)sc1C)c1ccc(Cl)cc1 (centres undefined) | 21.7 | 
24 | CC(=O)Nc1cccc(C(=O)CC(/C=C/c2ccccc2)NC(C)=O)c1 (centres undefined) | 69.2 | 
25 | Oc1ncnc2[nH]ncc12 [ALLOPURINOL] |  | Activity (Mus musculus [2]): 3.19 µM; Activity (Mus musculus [3]): 2.17 µM; Activity (Mus musculus [4]): 2.93 µM

Second part, led by results:

Row | IC50 [1] [µM] | Structure (SMILES) | also measured
26 | 38.3 | CC(=O)NC(CC(=O)c1ccccc1)c1ccccc1 (centres undefined) | 
27 | 26.2 | CC(=O)NC(CC(=O)c1ccccc1)c1cccc([N+](=O)[O-])c1 (centres undefined) | 
28 | 28.1 | CC(=O)NC(CC(=O)c1ccccc1)c1cccc(Br)c1 (centres undefined) | 
29 | 27.1 | CC(=O)NC(CC(=O)c1ccccc1)c1ccc(Cl)cc1 (centres undefined) | 
30 | 29 | CC(=O)NC(CC(=O)c1ccccc1)c1ccc(C#N)cc1 (centres undefined) | 
31 | 45 | COc1ccc(C(CC(=O)c2ccccc2)NC(C)=O)cc1 (centres undefined) | 
32 | 32.3 | CC(=O)NC(CC(=O)c1ccccc1)c1ccccc1[N+](=O)[O-] (centres undefined) | 
33 | 53 | CC(=O)NC(CC(=O)c1ccccc1)c1ccc2ccccc2c1 (centres undefined) | 
34 | 59 | CC(=O)NC(CC(=O)c1ccccc1)c1cccc2ccccc12 (centres undefined) | 
35 | 8.5 | CC(=O)NC(CC(=O)c1ccc2ccccc2c1)c1ccccc1 (centres undefined) | Activity (Mus musculus [2]): 4.26 µM; Activity (Mus musculus [3]): 4.14 µM; Activity (Mus musculus [4]): 4.22 µM
36 | 2.45 | CC(=O)NC(CC(=O)c1ccc2ccccc2c1)c1cccc(Br)c1 (centres undefined) | Activity (Mus musculus [2]): 3.21 µM; Activity (Mus musculus [3]): 2.18 µM; Activity (Mus musculus [4]): 2.96 µM
37 | 40 | CC(=O)NC(CC(=O)c1cccc2ccccc12)c1ccccc1 (centres undefined) | 
38 | 42.2 | CC(=O)NC(CC(=O)c1cccc2ccccc12)c1cccc(Br)c1 (centres undefined) | 
39 | 44 | CC(=O)NC(CC(=O)c1cccc2ccccc12)c1cccc([N+](=O)[O-])c1 (centres undefined) | 
40 | 42 | CC(=O)NC(CC(=O)c1ccc(Cl)cc1)c1ccccc1 (centres undefined) | 
41 | 63 | CC(=O)NC(CC(=O)c1ccccc1)c1ccco1 (centres undefined) | 
42 | 78.3 | CC(=O)NC(/C=C/c1ccccc1)CC(=O)c1ccccc1 (centres undefined) | 
43 | 28.5 | CC(=O)NC(CC(=O)c1ccccc1)c1ccc([N+](=O)[O-])cc1 (centres undefined) | 

Source: ChEMBL document CHEMBL1817586, “N-(1,3-Diaryl-3-oxopropyl)amides as a new template for xanthine oxidase inhibitors” (Bioorg Med Chem, 2011)
